Where a SMILES comes first, the peptide text is derived from it. Bridges are numbered along the chain shown (N, C = ends). [ ]: non-standard residue; d: D form. The star is where a group is joined. Biotin = O=C1N[C@H]2[C@H](CS[C@H]2CCCCC(=O)*)N1; 2Nal = N[C@@H](Cc1ccc2ccccc2c1)C(=O)O; Gly(cPent) = N[C@H](C(=O)O)C1CCCC1; Hyp = O=C(O)[C@@H]1C[C@@H](O)CN1; Pen = CC(C)(S)[C@H](N)C(=O)O; Api = NC1(C(=O)O)CCNCC1; Ahx = NCCCCCC(=O)O
System: anti-hemagglutinin antibody clone 12ca5
Assay: Biolayer interferometry
Type: binding, mouse
Conditions: off-target control

With `CC1(C)SSC[C@H](NC(=O)[C@H](CO)NC(=O)[C@@H](NC(=O)[C@H](CO)NC(=O)C2(NC(=O)[C@H](Cc3ccc4ccccc4c3)NC(=O)[C@H](CO)NC(=O)CCCCCNC(=O)[C@@H](N)CCCCNC(=O)CCCC[C@@H]3SC[C@@H]4NC(=O)N[C@@H]43)CCNCC2)C2CCCC2)C(=O)N2C[C@H](O)C[C@H]2C(=O)N[C@@H](CO)C(=O)N[C@@H](Cc2ccc(O)cc2)C(=O)N[C@@H](CO)C(=O)N[C@@H](CO)C(=O)N2C[C@H](O)C[C@H]2C(=O)N[C@@H]1C(=O)N[C@@H](CO)C(N)=O` [NCBP-4 Ser Sub] (H-K(Biotin)[Ahx]S[2Nal][Api]S[Gly(cPent)]SC[Hyp]SYSS[Hyp][Pen]S-NH2; disulfide 9-16; N-terminus assumed) the “nonspecific binding to 12ca5 by BLI (in words)” value was “no affinity”.

From PMC11922053 (Science Advances, 2025)
